Reference: patent US9545387B2, “Composition and kit comprising piperazine derivatives and metformin, and use thereof in the treatment of diabetes” (METABOLYS, priority 2012, dated 2017)

Key:
[1] = oral glucose tolerance test (OGTT) in normal Swiss mice fasting for 17 hours, additive effect with metformin; format: in vivo; conditions: compound 1 50 mg/kg per os, metformin 300 mg/kg per os; for Glycaemia, Time 0 mn / Glycaemia, Time 90 mn: Table 1, OGTT; for Glycaemia, Time 0 mn: time 0 min; for Glycaemia, Time 90 mn: time 90 min; for drop of glycaemia area under curve after glucose load: study 1
Protocol: The anti-diabetic action of the compounds in Examples 1 and 2 were determined via oral route in normal Swiss mice fasting for 17 hours. […] The animals were housed for a minimum time of one week after delivery (ordered from Charles River France) up until the day of experimentation in an animal facility at a temperature regulated at 21-22° C. and subjected to a light cycle (from 9 h to 17 h) and dark cycle (from 19 h to 7 h). They were fed a maintenance diet: water and food were provided ? ad libitum ? . The animals were treated via oral route 1 hour before oral administration of a glucose load (oral glucose tolerance test—OGTT). Glycaemia was measured at various times before and after this glucose load. This glycaemia was measured using a glucometer (Lifescan OneTouch Ultra, Lifescan, Johnson and Johnson Company) and OneTouch Ultra glycaemia test strips. In the Tables below n represents the number of mice included in the study. • 1. […] The 2 compounds were administered successively one hour before the glucose load. All the groups were composed of 5 mice (metformin alone, compound 1 alone, metformin+compound 1, control group with the carrier alone). Blood samples were taken at 0, 30, 60, 90 and 120 minutes after the glucose load.

[2] = as above; format: in vivo; conditions: metformin 300 mg/kg per os; for Glycaemia, Time −60 mn / Glycaemia, Time 30 mn / Glycaemia, Time 60 mn / Glycaemia, Time 120 mn / Glycaemia, Time 0 mn / Glycaemia, Time 90 mn: OGTT; for Glycaemia, Time −60 mn: given 1 h before glucose load, time −60 min; for Glycaemia, Time 30 mn: time 30 min; for Glycaemia, Time 60 mn: time 60 min; for Glycaemia, Time 120 mn: time 120 min; for Glycaemia, Time 0 mn: time 0 min; for Glycaemia, Time 90 mn: time 90 min
[3] = system: liver cells of rats fasting for 48 h; conditions: rat liver cells; stated in words, no data shown; cited from earlier work
[4] = Table 1, compound 1 50 mg/kg per os
[5] = Table 2, compound 2 50 mg/kg per os
[6] = Table 3, compound 3 50 mg/kg per os
[7] = Table 4, compound 4 50 mg/kg per os

CN(C)C(=N)N=C(N)N [Metformin, metformin]
Glycaemia, Time 0 mn [1]: 3.2 ± 0.3 mM/liter
Glycaemia, Time 90 mn [1]: 7.7 ± 1.0 mM/liter
drop of glycaemia area under curve after glucose load [1]: 44.2%
Glycaemia, Time −60 mn [2, 4]: 3.7 ± 0.3 mM/liter
Glycaemia, Time 30 mn [2, 4]: 8.6 ± 0.5 mM/liter
Glycaemia, Time 60 mn [2, 4]: 9.4 ± 0.8 mM/liter
Glycaemia, Time 120 mn [2, 4]: 6.2 ± 0.8 mM/liter
Glycaemia, Time −60 mn [2, 5]: 3.8 ± 0.1 mM/liter
Glycaemia, Time 0 mn [2, 5]: 3.6 ± 0.3 mM/liter
Glycaemia, Time 30 mn [2, 5]: 11.2 ± 0.3 mM/liter
Glycaemia, Time 60 mn [2, 5]: 9.5 ± 0.4 mM/liter
Glycaemia, Time 90 mn [2, 5]: 8.0 ± 1.3 mM/liter
Glycaemia, Time 120 mn [2, 5]: 8.2 ± 0.7 mM/liter
Glycaemia, Time −60 mn [2, 6]: 5.6 ± 0.3 mM/liter
Glycaemia, Time 0 mn [2, 6]: 6.0 ± 0.3 mM/liter
Glycaemia, Time 30 mn [2, 6]: 9.2 ± 0.8 mM/liter
Glycaemia, Time 60 mn [2, 6]: 8.2 ± 0.4 mM/liter
Glycaemia, Time 90 mn [2, 6]: 7.7 ± 0.2 mM/liter
Glycaemia, Time 120 mn [2, 6]: 9.6 ± 0.8 mM/liter
Glycaemia, Time −60 mn [2, 7]: 4.2 ± 0.3 mM/liter
Glycaemia, Time 0 mn [2, 7]: 3.6 ± 0.3 mM/liter
Glycaemia, Time 30 mn [2, 7]: 9.5 ± 0.6 mM/liter
Glycaemia, Time 60 mn [2, 7]: 11.2 ± 1.8 mM/liter
Glycaemia, Time 90 mn [2, 7]: 9.6 ± 0.9 mM/liter
Glycaemia, Time 120 mn [2, 7]: 8.6 ± 0.7 mM/liter
drop of glycaemia area under curve after glucose load ([2]; study 2, compound 2 50 mg/kg per os): 38.7%
drop of glycaemia area under curve after glucose load ([2]; study 3, compound 3 50 mg/kg per os): 68.5%
drop of glycaemia area under curve after glucose load ([2]; study 4, compound 4 50 mg/kg per os): 54.3%
effect on the production of 13CO2 from 2-13C-lactate [3]: reduces
effect on the synthesis of glucose [3]: reduces

O=C(O)CCC(=O)c1ccc(OCCN2CCN(c3ccccc3F)CC2)cc1 [Compound 1]
Glycaemia, Time 0 mn [1]: 4.5 ± 0.3 mM/liter
Glycaemia, Time 90 mn [1]: 6.5 ± 0.5 mM/liter
drop of glycaemia area under curve after glucose load [1]: 42.5%
Glycaemia, Time −60 mn [2, 4]: 5.0 ± 0.2 mM/liter
Glycaemia, Time 30 mn [2, 4]: 15.2 ± 1.9 mM/liter
Glycaemia, Time 60 mn [2, 4]: 10.6 ± 0.2 mM/liter
Glycaemia, Time 120 mn [2, 4]: 5.3 ± 0.2 mM/liter
